Experimental data as given in PMC10590756, “Glutarate regulates T cell metabolism and anti-tumour immunity” (Nature Metabolism, 2023).

Assays:
[1] = test system: H3 lysine methylation in human CD8^+ T cells; experiment: Histone 3 methylation western blot; assay type: cell-based; settings: 7 days
Description: Histones were extracted with the Histone Extraction Kit (catalogue no. ab113476, Abcam). Proteins were separated by SDS–PAGE and transferred to polyvinylidene fluoride (PVDF) membranes. Total protein stain was obtained using non-stain protein labelling reagent (catalogue no. A44448, Thermo Fisher Scientific). Membranes were then blocked in 5% milk prepared in PBS plus 0.05% Tween-20, incubated with primary antibodies overnight at 4 °C and horseradish peroxidase (HRP)-conjugated secondary antibodies (catalogue nos. HAF008 and HAF007, R&D Systems) for 1 h the next day. After enhanced chemiluminescence (ECL) exposure (catalogue no. GERPN2106, Sigma-Aldrich), membranes were imaged using an iBrightCL1000 (Thermo Fisher Scientific). […] 13998); and anti-H3k27ac (catalogue no.

murine CD8^+ T cells = experiment: Cell growth and viability of murine CD8^+ T cells; assay type: cell-based; settings: 7 days
Description: After 7 days of culture, we assessed the abundance of CD62L^hiCD44^hi (TCM-like) T cells by flow cytometry (Fig. 1a). We additionally determined the effect of each compound on cell growth and viability (Fig. 1b and Extended Data Fig. 1a).
B16F10 cells were originally purchased from ATCC (catalogue no. CRL-6475) and genetically modified to express OVA, enhanced green fluorescent protein (GFP) and neomycin phosphotransferase. The resulting OVA expression B16F10-OVA cells were cultured in DMEM (catalogue no. 11995065, Thermo Fisher Scientific) containing 0.75 mg ml^−1 G418 sulphate (catalogue no. 10131027, Thermo Fisher Scientific). HEK 293T cells were purchased from Takara Bio (catalogue no. 632180) and cultured in DMEM. SKOV3 was purchased from ATCC (catalogue no. HTB-77) and cultured in McCoy’s 5A (Modified) Medium (catalogue no. 16600082, Thermo Fisher Scientific). Raji-GFP-Luc cells were purchased from Biocytogen (catalogue no. B-HCL-010) and cultured in Roswell Park Memorial Institute (RPMI) 1640 (catalogue no. 21875, Thermo Fisher Scientific). Jurkat cells were purchased from ATCC (catalogue no. TIB-152) and cultured in RPMI 1640. RAW 264.7 cells were purchased from ATCC (catalogue no. TIB-71) and cultured in RPMI 1640. HeLa cells were a gift from P. Lehner (University of Cambridge) and were authenticated using short tandem repeat profiling (Eurofins Genomics). HeLa cells were cultured in DMEM. MEFs were isolated from macerated embryonic day (E) 12.5–13.5 embryos. A whole litter of embryos without sex selection were used. Stable transfection with SV40 large T antigen passage 3 was used for immortalization. Cells were subcultured over 17 more passages and maintained in DMEM[63]. All media was supplemented with 10% FCS (catalogue no. 10270106, Gibco), 100 U ml^−1 penicillin and 100 µg ml^−1 streptomycin (catalogue no. P4333, Sigma-Aldrich). […] Cell number and viability was determined using the ADAM-MC Automated Cell Counter (NanoEntek), CellDrop Automated Cell Counter (DeNovix) or TC20 Automated Cell Counter (Bio-Rad Laboratories). […]

Compound	H3K9me2 levels on addition of αKG to DEG ([1]; 500 µM αKG with 500 µM DEG)	DEG-induced increase in H3K9 and H3K27 trimethylation on addition of αKG ([1]; equimolar αKG (500 µM) with 500 µM DEG)	concentration from which cell growth is decreased (murine CD8^+ T cells) [µM]
O=C(O)CCC(=O)C(=O)O [αKG, α-ketoglutarate, reference compound]	not reduced	abrogated	
CCCCCCCCOC(=O)[C@@H](O)CCC(=O)[O-].[Na+] [octyl ester S-2HG, (2S)-2-hydroxyglutaric acid octyl ester sodium salt, reference compound]			≥ 400
